Measurements reported in patent publication US20240336638A1, “IMIDAZOLE COMPOUND, AND INTERMEDIATE AND APPLICATION THEREOF” (priority 2021, published 2024).
Read-outs that look alike come from different tables or passages of the source.

Experiments:
MCAO/R rats = assay: Therapeutic administration (i.v.) in middle cerebral artery occlusion/reperfusion (MCAO/R) rats; type: in vivo, rat; details: for Bleeding time / Brain water content (%) / Cerebral infarction rate (%) / Clotting time / Neurological function score: once a day for 3 days, mean ± SD, n = 8; for Neurological function score: modified Bederson score
Description: Male SD rats weighing 250 to 300 g were taken, and the rats in each group fasted for 12 hours before modeling, while water was not restricted. According to the method of Longa et al.^[1], a rat model of MCAO/R was established by occluding the blood flow of internal carotid artery using the thread embolization method. The rats were anesthetized with 3% chloral hydrate (300 mg/kg, 1 mL/100 g body weight) through intraperitoneal injection and fixed in the supine position on the operating table. A midline incision was made in the neck, and the right common carotid artery was isolated using forceps and threaded for later use. The external and internal carotid arteries were isolated from the bifurcation of the common carotid artery. A single thread was threaded through the internal carotid artery, and two threads were threaded through the external carotid artery. Both distal and proximal ends were ligated, and the middle part of the ligation site was cut using ophthalmic scissors. The proximal main trunk of the external carotid artery was isolated and reserved for later use. The prepared cotton thread was used to half-ligate the common carotid artery (tying a slipknot), and the thread prepared for the internal carotid artery was tightened with hemostatic forceps, temporarily occluding the blood flow of the internal carotid artery. A small incision at the proximal main trunk of the external carotid artery was made using ophthalmic scissors, and then, the fishing line was held with straight forceps, inserted from this incision, and slowly advanced through the isolated proximal main trunk of the external carotid artery towards the intracranial direction of the internal carotid artery. The advancement was stopped at a predetermined position, and then the thread of the internal carotid artery that was tightened with the hemostatic forceps was loosened. […] Another thread was threaded and tightened around the proximal main trunk of the external carotid artery and the fishing line that had already been inserted into the predetermined position. The half-ligated thread on the common carotid artery was then loosened, and the skin was subsequently sutured. After 2 hours of ischemia, a small section of the fishing line was pulled out. […] After rats in the blank control group were anesthetized, only the bifurcation of the internal and external carotid arteries was exposed without the occlusion of the MCA.
Successfully modeled rats (neurological function score of 3 after reperfusion) were taken and divided into 20 groups (8 rats for each) according to the random number table method. The groups were divided into a model control group, three dose groups (high, 12 mg/kg, 2.4 mg/mL; medium, 6 mg/kg, 1.2 mg/mL; low, 3 mg/kg, 0.6 mg/mL) for each of the six test compounds, and a positive drug Ozagrel group (6 mg/kg, 1.2 mg/mL), respectively. Both blank and model control groups were administered equal volumes of mixed solvents, and the rats in each group were administered by tail vein injection (i.v.) 2 hours after reperfusion, once a day for 3 consecutive days, with a volume of 0.5 mL/100 g body weight.
Ten minutes after the last administration, the neurological function of the animals was graded according to the modified Bederson scoring method. The standard is as follows[2]: • 0 point: no neurological symptoms; • 1 point: when the rat is suspended by lifting its tail, the forelimb on the surgical side of the rat was flexed and pressed against the chest wall; • 2 points: on a smooth plane, when the rat is pushed from the surgical side to the opposite side, the resistance is less than when it is moved to the same side; • 3 points: the animal moves around or in circles when moving freely; • 4 points: flaccid paralysis, no spontaneous movement of limbs.
After Bederson scoring, the rats were executed by cervical dislocation, and the whole brain was removed and weighed. After weighing, the whole brain was placed in a −20° C. refrigerator for 20 minutes. […]

[1] = Pharmacokinetics in SD rats after single IV and PO administration, plasma; type: in vivo; details: for Vd: rat, plasma, iv, 1 mg/kg; for MRT last: read-out: MRT(0−t); for MRT inf: read-out: MRT(0−∞)
Description: The experimental method of administration by gavage injection in rats: SD rats weighing 180 to 220 g were fasted for 12 hours prior to the experiment, with free access to water. After administration, food and water were withheld for 4 hours. After this 4-hour period, the rats were allowed free access to water, and food was provided after 8 hours. The drugs were administered at a set dose. N=3, blood samples were taken before administration, and 5 minutes, 0.25 hours, 0.5 hours, 0.75 hours, 1 hour, 2 hours, 4 hours, 8 hours, and 24 hours after administration, respectively, and placed into sodium heparin anticoagulant tubes. The tubes were centrifuged for 1 hour at 4° C. and at 8000 rpm for 5 minutes, and the plasma was then separated and stored in centrifuge tubes at −70° C. for analysis. The experimental method of intravenous administration to rats: SD rats weighing 180 to 220 g were fasted for 12 hours prior to the experiment, with free access to water. After administration, food and water were withheld for 4 hours. After this 4-hour period, the rats were allowed free access to water, and food was provided after 8 hours. The drugs were administered at a set dose. N=3, blood samples were taken before administration, and 5 minutes, 0.25 hours, 0.5 hours, 0.75 hours, 1 hour, 2 hours, 4 hours, 8 hours, and 24 hours after administration, respectively, and placed into sodium heparin anticoagulant tubes. The tubes were centrifuged for 1 hour at 4° C. and at 8000 rpm for 5 minutes, and the plasma was then separated and stored in centrifuge tubes at −70° C. for analysis. The plasma concentration-time data were processed using the Phoenix® WinNonlin® 8.0 program to calculate pharmacokinetic parameters. Among them, Cmax and Tmax are measured values, the elimination rate constant k of the tail section of the C-t curve is obtained from the linear regression of LnC-t, and the value of AUC0-4 is calculated by the trapezoidal area method, and the area under the curve from 0 to ∞ time is AUC=AUC0-4+Ct/k. [table]

[2] = medium dose 6 mg/kg i.v. (Ozagrel group 6 mg/kg)
[3] = Sprague-Dawley (SD), rat plasma, IV 1 mg/kg
[4] = Sprague-Dawley (SD), rat plasma, PO 6 mg/kg

## O=C(O)[C@@H]1C[C@H]1c1ccc(Cn2cnc(Cl)c2)c(Cl)c1 [Compound 11, (1R,2R)-2-(3-Chloro-4-((4-chloro-1H-imidazol-1-yl)methyl)phenyl)cyclopropane-1-carboxylic acid]
MCAO/R rats; high dose
  neurological deficits in rats: can significantly reduce
MCAO/R rats; high dose 12 mg/kg i.v.
  Bleeding time: 319.25 ± 49.38 s
  Brain water content (%): 80.58 ± 0.77%
  Cerebral infarction rate (%): 13.53%
  Clotting time: 152.81 ± 29.69 s
  Neurological function score: 1.25 ± 0.46
MCAO/R rats; high dose, comparison among test drugs
  improving the neurological function scores of the rats: more advantageous
MCAO/R rats; high doses, comparison among test drugs
  reducing the infarct area (smallest mean infarct rate): more advantageous
MCAO/R rats; low dose
  cerebral edema in rats: did not significantly improve
MCAO/R rats; low dose 3 mg/kg i.v.
  Bleeding time: 307.63 ± 64.59 s
  Brain water content (%): 82.04 ± 1.91 %
  Cerebral infarction rate (%): 28.07 ± 4.88%
  Clotting time: 138.38 ± 27.34 s
  Neurological function score: 2.25 ± 0.46
MCAO/R rats; [2]
  Bleeding time: 279.75 ± 37.97 s
  Brain water content (%): 80.33 ± 1.65%
  Cerebral infarction rate (%): 19.96%
  Clotting time: 136.63 ± 9.80 s
  Neurological function score: 2.00 ± 0.53
[1]; Sprague-Dawley (SD), rat plasma, IV 1 mg/kg, read-out: Vss
  Vd: 0.22 L/kg
[1]; Sprague-Dawley (SD), rat plasma, IV 1 mg/kg, read-out: Vz
  Vd: 0.22 L/kg
[1]; [3]
  AUC(0-inf): 228 µg·h/mL
  AUC(0-t): 86.4 µg·h/mL
  C0: 5150 ng/mL
  Cmax: 5140 ng/mL
  Tmax: 0.083 h
  half-life: 2090 min
  MRT last: 10.5 h
  MRT inf: 50.1 h
[1]; [4]
  AUC(0-inf): 1700 µg·h/mL
  AUC(0-t): 587 µg·h/mL
  Cmax: 32400 ng/mL
  Tmax: 4 h
  half-life: 2220 min
  MRT last: 11 h
  MRT inf: 54.4 h
[1]; Sprague-Dawley (SD), rat plasma, PO 6 mg/kg vs IV 1 mg/kg
  bioavailability: 113%
[1]; intravenously at 1 mg/kg
  T1/2 and AUC(0-∞) in the whole body blood circulation system as compared to that of Ozagrel: significantly increased
[1]; orally at 6 mg/kg
  T1/2 and AUC(0-∞) in the whole body blood circulation system as compared to that of Ozagrel: significantly increased
